According to patent US10005767B2, “Compositions and methods for inhibition of the JAK pathway” (Rigel Pharmaceuticals, Inc., priority 2009, dated 2018):
Where a name gives a salt, the structure may show the parent alone.

test system: human primary T-cells, IL-2 stimulated proliferation (JAK-1 and JAK-3 dependent; reported as JAK3 activity); assay: Human primary T-cell proliferation stimulated by IL-2 (Example 3); format: cell-based; details: Homo sapiens, T-cell, tested under conditions described in Example 3 (IL-2 stimulated human primary T-cell proliferation); read-out: ability to inhibit JAK3 activity, IC50 range (Table V)
Outline: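 Peripheral-blood human T-cells pre-activated via TCR/CD28, IL-2-starved overnight, then cultured 72 h at 37 °C with compound in Yssel's medium containing IL-2 (80 U/mL in cell suspension). Proliferation read as viable-cell ATP by CellTiter-Glo luminescence; reduction versus control taken as JAK pathway inhibition.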

`N#Cc1ccc(Nc2ncc(F)c(Nc3ccc4oc(=O)[nH]c4c3)n2)cc1` [Compound I-45, N4-(benzo[d]oxazol-2(3H)-on-5-yl)-N2-(4-cyanophenyl)-5-fluoropyrimidine-2,4-diamine] and `N#Cc1cccc(Nc2ncc(F)c(Nc3ccc4oc(=O)[nH]c4c3)n2)c1` [Compound I-44, N4-(benzo[d]oxazol-2(3H)-on-5-yl)-N2-(3-cyanophenyl)-5-fluoropyrimidine-2,4-diamine] cannot be ordered by IC50: under 500 nM for the first, under 500 nM for the second.

`COc1c(F)ccc(Nc2ncc(C)c(Nc3cc(F)c4oc(=O)[nH]c4c3)n2)c1F` [Compound I-508, 5-(2-(2,4-difluoro-3-methoxyphenylamino)-5-methylpyrimidin-4-ylamino)-7-fluorobenzo[d]oxazol-2(3H)-one] and `COc1c(F)ccc(Nc2ncc(C)c(Nc3cc(C)c4oc(=O)[nH]c4c3)n2)c1F` [Compound I-507, 5-(2-(2,4-difluoro-3-methoxyphenylamino)-5-methylpyrimidin-4-ylamino)-7-methylbenzo[d]oxazol-2(3H)-one] cannot be ordered by IC50: under 500 nM for the first, under 500 nM for the second.

`Cc1cnc(Nc2cnc(N3CC4CCC(C3)N4)c(C)c2)nc1Nc1ccc2oc(=O)[nH]c2c1` [II-61, 5-(2-(6-(3,8-diaza-bicyclo[3.2.1]octan-3-yl)-5-methylpyridin-3-ylamino)-5-methylpyrimidin-4-ylamino)benzo[d]oxazol-2(3H)-one] and `Cc1cnc(Nc2cnc(C3NCC4CCCCC43)c(Cl)c2)nc1Nc1ccc2oc(=O)[nH]c2c1` (stereo not drawn) [II-122, N2-[3-chloro-2-(octahydroisoindol-1-yl)pyridin-5-yl]-5-methyl-N4-(2-oxo-2,3-dihydro-1,3-benzoxazol-5-yl)-2,4-pyrimidinediamine] cannot be ordered by IC50: under 500 nM for the first, under 500 nM for the second.

`Cc1cnc(Nc2ccc(OCC(C)C)cc2)nc1Nc1ccc2oc(=O)[nH]c2c1` [Compound I-196, 5-[2-(4-Isobutoxy-phenylamino)-5-methyl-pyrimidin-4-ylamino]-3H-benzooxazol-2-one] and `COc1ccc(Nc2ncc(C)c(Nc3ccc4oc(=O)[nH]c4c3)n2)cc1COC(C)C` [Compound I-422, 5-(2-(3-(isopropoxymethyl)-4-methoxyphenylamino)-5-methylpyrimidin-4-ylamino)benzo[d]oxazol-2(3H)-one] cannot be ordered by IC50: under 500 nM for the first, under 500 nM for the second.

First: Cc1cnc(Nc2ccc(-c3ccc(Cl)nc3)cc2)nc1Nc1ccc2oc(=O)[nH]c2c1 [Compound I-509, 5-(2-(4-(6-chloropyridin-3-yl)phenylamino)-5-methylpyrimidin-4-ylamino)benzo[d]oxazol-2(3H)-one trifluoroacetate salt]
Second: Cc1cnc(Nc2ccc(C(N)=O)c(Cl)c2)nc1Nc1ccc2oc(=O)[nH]c2c1 [Compound I-141, 2-Chloro-4-[5-methyl-4-(2-oxo-2,3-dihydro-benzooxazol-5-ylamino)-pyrimidin-2-ylamino]-benzamide trifluoroacetic acid salt]
The IC50 of the first is higher: over 10000 nM for the first, under 500 nM for the second. The second is the more potent here.

`Cc1cnc(Nc2cccc(S(=O)(=O)N3CCOCC3)c2)nc1Nc1ccc2oc(=O)[nH]c2c1` [Compound I-30, N4-(benzo[d]oxazol-2(3H)-on-5-yl)-N2-(3-(morpholinosulfonyl)phenyl)-5-methylpyrimidine-2,4-diamine] and `Cc1cnc(Nc2cccc(C(C)N3CCC3)c2)nc1Nc1ccc2oc(=O)[nH]c2c1` (stereo not drawn) [Compound I-211, 5-(2-(3-(1-(azetidin-1-yl)ethyl)phenylamino)-5-methylpyrimidin-4-ylamino)benzo[d]oxazol-2(3H)-one] cannot be ordered by IC50: under 500 nM for the first, under 500 nM for the second.

`Cc1cnc(Nc2ccc(N3CCC4CCC3N4C)cc2)nc1Nc1ccc2oc(=O)[nH]c2c1` (stereo not drawn) [Compound I-123, N4-(benzo[d]oxazol-2(3H)-on-5-yl)-N2-(4-(8-methyl-2,8-diazabicyclo[3.2.1]octan-2-yl)phenyl)-5-methylpyrimidine-2,4-diamine] and `Cc1cnc(Nc2ccc(N3C[C@H]4C[C@@H]3CN4C)nc2)nc1Nc1ccc2oc(=O)[nH]c2c1` [II-2, N4-(benzo[d]oxazol-2(3H)-on-5-yl)-N2-(6-((1R,4R)-5-methyl-2,5-diazabicyclo[2.2.1]heptan-2-yl)-pyridin-3-yl)-5-methylpyrimidine-2,4-diamine] cannot be ordered by IC50: under 500 nM for the first, under 500 nM for the second.

First: O=c1[nH]c2cc(Nc3nc(Nc4cccc(OC(F)(F)F)c4)ncc3F)ccc2o1 [Compound I-107, N4-(benzoxazolin-2-on-5-yl)-N2-(3-trifluoromethoxyphenyl)-5-fluoropyrimidine-2,4-diamine trifluoroacetate salt]
Second: COc1cc(Nc2ncc(C)c(Nc3ccc4oc(=O)[nH]c4c3)n2)cc2ccccc12 [IV-55, 5-[2-(4-Methoxy-naphthalen-2-ylamino)-5-methyl-pyrimidin-4-ylamino]-3H-benzooxazol-2-one]
The IC50 of the first is higher: 500 to 5000 nM for the first, under 500 nM for the second. The second is the more potent here.

`Cc1cnc(Nc2ccc3c(c2)C(=O)CCCC3)nc1Nc1ccc2oc(=O)[nH]c2c1` [IV-2, N4-(benzo[d]oxazol-2(3H)-on-5-yl)-N2-(6,7,8,9-tetrahydro-5H-benzo[7]annulen-5-on-3-yl)-5-methylpyrimidine-2,4-diamine] and `COc1cc(Nc2ncc(C)c(Nc3ccc4oc(=O)[nH]c4c3)n2)cc(C)c1C` [Compound I-535, 5-(2-(3-methoxy-4,5-dimethylphenylamino)-5-methylpyrimidin-4-ylamino)benzo[d]oxazol-2(3H)-one] cannot be ordered by IC50: under 500 nM for the first, under 500 nM for the second.

`COc1cc(Nc2ncc(C)c(Nc3ccc4oc(=O)[nH]c4c3)n2)cc(C)c1OC` [Compound I-452, 5-(2-(3,4-dimethoxy-5-methylphenylamino)-5-methylpyrimidin-4-ylamino)benzo[d]oxazol-2(3H)-one] and `Cc1cnc(Nc2cnc(N3CC4CN(C(=O)OC(C)(C)C)CC4C3)c(F)c2)nc1Nc1ccc2oc(=O)[nH]c2c1` (stereo not drawn) [II-48, 5-{3-Fluoro-5-[5-methyl-4-(2-oxo-2,3-dihydro-benzooxazol-5-ylamino)-pyrimidin-2-ylamino]-pyridin-2-yl}-hexahydro-pyrrolo[3,4-c]pyrrole-2-carboxylic acid tert-butyl ester] cannot be ordered by IC50: under 500 nM for the first, under 500 nM for the second.

same assay, conditions: tested under conditions described in Example 3 (IL-2 stimulated human primary T-cell proliferation); read-out: ability to inhibit JAK3 activity, IC50 range (Table V)

Compared with `Cn1c(=O)oc2cc(Nc3nc(Nc4ccc(S(C)(=O)=O)cc4)ncc3F)ccc21` [Compound I-60], `Cc1cnc(Nc2cccc(S(N)(=O)=O)c2)nc1Nc1ccc2c(c1)oc(=O)n2C` [Compound I-63, N2-((3-aminosulfonyl)phenyl)-N4-(3-methyl-2-oxo-2,3-dihydrobenzo[d]oxazol-6-yl)-5-methylpyrimidine-2,4-diamine] is lower in IC50: over 10000 nM for the first, under 500 nM for the second.

`Cc1cnc(Nc2ccc(F)c(C(F)(F)F)c2)nc1Nc1ccc2oc(=O)[nH]c2c1` [Compound I-361, N2-(4-fluoro-3-trifluoromethyl)phenyl-5-methyl-N4-(2-oxo-2,3-dihydro-1,3-benzoxazol-5-yl)-2,4-pyrimidinediamine] and `Cc1cc(Nc2ncc(C)c(Nc3ccc4oc(=O)[nH]c4c3)n2)ccc1F` [Compound I-362, N2-(4-fluoro-3-methyl)phenyl-5-methyl-N4-(2-oxo-2,3-dihydro-1,3-benzoxazol-5-yl)-2,4-pyrimidinediamine] cannot be ordered by IC50: under 500 nM for the first, under 500 nM for the second.

`Cc1cnc(Nc2ccc(N3CCN(C)CC3)c(F)c2)nc1Nc1ccc2oc(=O)[nH]c2c1` [Compound I-281, N2-[3-fluoro-4-(4-methylpiperazino)]phenyl-5-methyl-N4-(2-oxo-2,3-dihydro-1,3-benzoxazol-5-yl)-2,4-pyrimidinediamine] and `Cc1cnc(Nc2ccc(N3CCC(F)(F)CC3)c(F)c2)nc1Nc1ccc2oc(=O)[nH]c2c1` [Compound I-275, N2-[4-(4,4-difluoropiperidinyl)-3-fluoro]phenyl-5-methyl-N4-(2-oxo-2,3-dihydro-1,3-benzoxazol-5-yl)-2,4-pyrimidinediamine] cannot be ordered by IC50: under 500 nM for the first, under 500 nM for the second.

`Cc1cc(Nc2ncc(C)c(Nc3ccc4oc(=O)[nH]c4c3)n2)ccc1N1CCN2CCC1CC2` [Compound I-120, N4-(benzo[d]oxazol-2(3H)-on-5-yl)-N2-((4-(1,4-diazabicyclo[3.2.2]nonan-4-yl)-3-methyl)phenyl)-5-methylpyrimidine-2,4-diamine] and `Cc1cc(Nc2ncc(C)c(Nc3ccc4oc(=O)[nH]c4c3)n2)ccc1N1CCN2CCCCC2C1` (stereo not drawn) [Compound I-122, N4-(benzo[d]oxazol-2(3H)-on-5-yl)-N2-((4-(dihydro-1H-pyrido[1,2-a]pyrazin-2(6H,7H,8H,9H,9aH)-yl)-3-methyl)phenyl)-5-methylpyrimidine-2,4-diamine] cannot be ordered by IC50: under 500 nM for the first, under 500 nM for the second.

`Cc1cnc(Nc2ccc(N3CCOCC3)cc2)nc1Nc1ccc2oc(=O)[nH]c2c1` [Compound I-338, 5-methyl-N2-(4-morpholino)phenyl-N4-(2-oxo-2,3-dihydro-1,3-benzoxazol-5-yl)-2,4-pyrimidinediamine] and `CCN1CCN(c2cc(Nc3ncc(C)c(Nc4ccc5oc(=O)[nH]c5c4)n3)ccc2Cl)CC1` [Compound I-283, N2-[4-chloro-3-(4-ethylpiperazino)]phenyl-5-methyl-N4-(2-oxo-2,3-dihydro-1,3-benzoxazol-5-yl)-2,4-pyrimidinediamine] cannot be ordered by IC50: under 500 nM for the first, under 500 nM for the second.

Compared with `Cc1cnc(Nc2ccc(-c3ccncc3)c(Cl)c2)nc1Nc1ccc2oc(=O)[nH]c2c1` [Compound I-329, N2-[3-chloro-4-(pyridin-4-yl)]phenyl 5-methyl-N4-(2-oxo-2,3-dihydro-1,3-benzoxazol-5-yl)-2,4-pyrimidinediamine], `Cc1cnc(Nc2cccc(-c3cccnc3)c2)nc1Nc1ccc2oc(=O)[nH]c2c1` [Compound I-290, 5-methyl-N4-(2-oxo-2,3-dihydro-1,3-benzoxazol-5-yl)-N2-[3-(pyridin-3-yl)]phenyl-2,4-pyrimidinediamine] is lower in IC50: 500 to 5000 nM for the first, under 500 nM for the second.

In the case of `COc1cccc(Nc2ncc(C)c(Nc3ccc4oc(=O)[nH]c4c3)n2)c1` [Compound I-337, N2-(3-methoxy)phenyl-5-methyl-N4-(2-oxo-2,3-dihydro-1,3-benzoxazol-5-yl)-2,4-pyrimidinediamine], the IC50 is reported as under 500 nM.
